Assay [1] is described as follows: Binding affinity to His6-tagged TPR2A (unknown origin) assessed as reduction in fluorescein-labeled C-terminal Hsp90/TRP2A protein-protein interaction incubated for 2 hrs by fluorescence polarization assay. Further details: species or system Homo sapiens.
For another assay, the system named is MDA-MB-231. Kind of assay: Antiproliferative activity against human MDA-MB-231 cells. In kind it is functional, cell-based.
In a further assay the test system is NCI-H1299. Briefly: Antiproliferative activity against human NCI-H1299 cells incubated for 2 days followed by medium replacement by MTT assay. It counts as functional, cell-based. To be noted: NCI-H1299, 48 h.
Assay [2] addresses T1, Heat shock protein HSP 90-alpha (Homo sapiens, UniProt P07900). Kind of assay: Inhibition of His6-tagged N-terminal human HSP90alpha expressed in Escherichia coli BL21 Lys cells preincubated for 10 mins followed by SA-APC and biotin-GM addition and measured after 6 hrs by TR-FRET assay. Background: TR-FRET usually uses a lanthanide donor and a delayed reading to cut background.

Assay [3] has as its target T2, Endoplasmin (Homo sapiens, UniProt P14625). Briefly: Displacement of FITC-geldanamycin from GRP94 (unknown origin) after 24 hrs by fluorescence polarization assay. A general note: In fluorescence polarisation assays a small probe gives low polarisation when free and higher when bound to something large.
The subject of assay [4] is MCF7. Briefly: Antiproliferative activity against human MCF7 cells after 72 hrs by MTS/PMS assay. It counts as functional, cell-based. The conditions noted are these: MCF7, 72 h.
A short description of assay [5]: Binding affinity to His6-tagged TPR2A (unknown origin) by isothermal titration calorimetry. Further details: species or system Homo sapiens. (ITC needs no label: the signal is the heat of the interaction.)
A short description of assay [6]: Antiproliferative activity against rat KNRK5.2 cells. It counts as functional, cell-based.
Assay [7] concerns MCF7. Briefly: Antiproliferative activity against human MCF7 cells. In kind it is functional, cell-based.
In assay [8] the test system is PANC-1. Kind of assay: Antitumor activity against human PANC1 cells xenografted in athymic mouse at 3 mg/kg, ip administered for 2 continuous days followed by 1 injection per 3 days and measured twice per week relative to control. In kind it is functional. To be noted: PANC-1, ip, 72 h, read-out: GI.
Assay [9] has as its system PANC-1. Briefly: Antiproliferative activity against human PANC1 cells after 24 hrs by MTS assay. In kind it is functional, cell-based. The conditions noted are these: PANC-1, 24 h.
The subject of the next assay is MV4-11. Briefly: Antiproliferative activity against human MV4-11 cells after 120 hrs by TopCount scintillation analysis. It counts as functional, cell-based. The conditions noted are these: MV4-11, 120 h.
The target in assay [10] is T3, Heat shock protein 75 kDa, mitochondrial (Homo sapiens, UniProt Q12931).
T3 sequence (Q12931 whole entry): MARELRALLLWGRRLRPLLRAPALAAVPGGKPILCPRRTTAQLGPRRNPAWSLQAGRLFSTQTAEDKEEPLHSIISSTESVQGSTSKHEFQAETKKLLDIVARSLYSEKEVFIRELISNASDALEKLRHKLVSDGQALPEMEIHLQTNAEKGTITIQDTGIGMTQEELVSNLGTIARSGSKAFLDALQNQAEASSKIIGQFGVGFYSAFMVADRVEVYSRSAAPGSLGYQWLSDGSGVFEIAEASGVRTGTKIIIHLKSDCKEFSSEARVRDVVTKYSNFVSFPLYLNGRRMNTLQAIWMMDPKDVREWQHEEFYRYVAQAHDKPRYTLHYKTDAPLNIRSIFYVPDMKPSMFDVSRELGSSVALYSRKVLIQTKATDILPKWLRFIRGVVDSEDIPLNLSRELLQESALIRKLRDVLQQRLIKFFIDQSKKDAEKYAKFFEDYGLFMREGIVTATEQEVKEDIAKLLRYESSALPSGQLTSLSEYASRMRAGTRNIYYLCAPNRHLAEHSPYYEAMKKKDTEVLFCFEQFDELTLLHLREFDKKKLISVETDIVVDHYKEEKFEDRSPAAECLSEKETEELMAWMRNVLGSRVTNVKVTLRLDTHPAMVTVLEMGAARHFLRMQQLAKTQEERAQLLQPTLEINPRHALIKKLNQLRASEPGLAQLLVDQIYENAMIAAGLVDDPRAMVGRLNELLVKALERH
Kind of assay: Inhibition of FITC-geldanamycin binding to N-terminal His-tagged recombinant human TRAP1 (60 to 704 residues) expressed in Escherichia coli preincubated for 2 hrs followed by Geldanamycin-FITC addition and measured after 5 hrs by fluorescence polarization competitive binding assay.

In assay [11] the target is T1, Heat shock protein HSP 90-alpha. Briefly: Inhibition of FITC-geldanamycin binding to recombinant human HSP90alpha expressed in Escherichia coli preincubated for 2 hrs followed by Geldanamycin-FITC addition and measured after 5 hrs by fluorescence polarization competitive binding assay.
The target of assay [12] is Heat shock protein HSP 90-beta (Homo sapiens, UniProt P08238). Kind of assay: Inhibition of FITC-geldanamycin binding to recombinant human HSP90beta expressed in Escherichia coli preincubated for 2 hrs followed by Geldanamycin-FITC addition and measured after 5 hrs by fluorescence polarization competitive binding assay.
Heat shock protein HSP 90-beta, sequence (P08238 whole entry): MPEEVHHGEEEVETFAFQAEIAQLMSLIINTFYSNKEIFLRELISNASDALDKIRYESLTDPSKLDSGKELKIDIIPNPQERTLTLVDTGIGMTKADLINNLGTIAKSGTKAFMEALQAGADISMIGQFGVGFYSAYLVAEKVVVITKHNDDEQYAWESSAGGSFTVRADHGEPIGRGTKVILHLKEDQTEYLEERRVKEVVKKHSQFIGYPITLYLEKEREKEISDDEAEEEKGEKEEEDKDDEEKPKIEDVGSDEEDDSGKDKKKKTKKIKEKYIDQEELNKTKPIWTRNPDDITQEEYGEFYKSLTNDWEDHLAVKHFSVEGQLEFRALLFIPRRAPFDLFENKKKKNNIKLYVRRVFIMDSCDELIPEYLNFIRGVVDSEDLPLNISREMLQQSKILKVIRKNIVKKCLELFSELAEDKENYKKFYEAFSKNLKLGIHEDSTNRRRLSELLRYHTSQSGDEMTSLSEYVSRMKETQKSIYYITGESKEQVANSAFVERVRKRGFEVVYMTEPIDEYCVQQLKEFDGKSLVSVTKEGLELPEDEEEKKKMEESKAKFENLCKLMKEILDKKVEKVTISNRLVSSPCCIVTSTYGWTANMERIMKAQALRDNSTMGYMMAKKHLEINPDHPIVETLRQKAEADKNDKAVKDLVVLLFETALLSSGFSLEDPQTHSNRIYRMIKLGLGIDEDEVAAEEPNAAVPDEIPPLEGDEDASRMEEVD
Assay [13] deals with T2, Endoplasmin. Briefly: Inhibition of FITC-geldanamycin binding to N-terminal His-tagged recombinant human GRP94 expressed in Escherichia coli preincubated for 2 hrs followed by Geldanamycin-FITC addition and measured after 5 hrs by fluorescence polarization competitive binding assay.
Assay [14] deals with PANC-1. Briefly: Antiproliferative activity against human PANC1 cells after 48 hrs by MTS assay. It counts as functional, cell-based. To be noted: PANC-1, 48 h.
Another assay deals with MIA PaCa-2. Briefly: Antiproliferative activity against human MIAPaCa2 cells after 48 hrs by MTS assay. It counts as functional, cell-based. The conditions noted are these: MIA PaCa-2, 48 h.
A further assay deals with BXPC-3. Briefly: Antiproliferative activity against human BxPC3 cells after 48 hrs by MTS assay. It counts as functional, cell-based. The conditions noted are these: BXPC-3, 48 h.

A word on the Kd: it is the equilibrium constant for the complex coming apart. One may read the IC50 as the concentration that gives 50% inhibition. A low value points to higher potency. In general, Ki refers to the dissociation constant of the complex between target and ligand, obtained from inhibition or displacement.

T2 sequence (P14625 whole entry): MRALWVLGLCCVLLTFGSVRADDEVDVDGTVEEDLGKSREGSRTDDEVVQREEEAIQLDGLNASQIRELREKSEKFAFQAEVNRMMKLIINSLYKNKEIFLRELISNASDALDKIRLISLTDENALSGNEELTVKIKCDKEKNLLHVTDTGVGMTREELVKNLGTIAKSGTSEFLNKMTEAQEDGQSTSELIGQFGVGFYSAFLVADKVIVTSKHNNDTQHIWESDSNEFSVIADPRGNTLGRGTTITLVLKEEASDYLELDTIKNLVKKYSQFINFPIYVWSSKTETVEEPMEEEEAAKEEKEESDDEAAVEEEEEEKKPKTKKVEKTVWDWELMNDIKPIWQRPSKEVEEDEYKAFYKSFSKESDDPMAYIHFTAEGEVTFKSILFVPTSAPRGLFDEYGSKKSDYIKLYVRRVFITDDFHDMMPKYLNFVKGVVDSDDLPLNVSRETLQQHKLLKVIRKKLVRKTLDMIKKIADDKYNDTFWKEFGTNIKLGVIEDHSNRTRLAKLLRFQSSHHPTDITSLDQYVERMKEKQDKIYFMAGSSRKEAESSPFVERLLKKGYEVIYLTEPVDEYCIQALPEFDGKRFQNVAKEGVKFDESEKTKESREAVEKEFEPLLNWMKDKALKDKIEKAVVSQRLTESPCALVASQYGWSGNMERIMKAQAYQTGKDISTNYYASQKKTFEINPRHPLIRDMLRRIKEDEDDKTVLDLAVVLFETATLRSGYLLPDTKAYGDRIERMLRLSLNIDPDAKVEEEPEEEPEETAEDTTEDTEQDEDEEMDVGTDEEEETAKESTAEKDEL

Turning to `CCCc1nc2c(=O)n(C)c(=O)nc-2n(C)n1`, in [1], the Kd was 0.202 µM. The molecule also came in with an IC50 with MDA-MB-231 of 1.75 µM.

As for `Cn1nc(Cc2ccccc2)nc2c(=O)n(C)c(=O)nc1-2`, in assay [1], the Kd was found to be 0.566 µM.

Consider `CCn1nc(-c2ccccc2)nc2c(=O)n(C)c(=O)nc1-2`, for which the dissociation constant Kd in assay [1] worked out at 0.928 µM.

As to `Cn1nc(-c2ccccc2)nc2c(=O)n(C)c(=O)nc1-2`, the dissociation constant (Kd) in assay [1] was 1.04 µM.

`COc1ccc(CC(=O)c2ccc3c(c2OC)C=CC(C)(C)O3)cc1OC` registered an IC50 with NCI-H1299 of 0.14 µM.

Regarding `COc1cccc(C(=O)NC2CC3CCC(C2)N3c2ccc(C(N)=O)cn2)c1C` (stereo unspecified), the IC50 in assay [2] turned out to be 0.641 µM.

As to `CC(C)c1cc(C(=O)N2Cc3ccccc3C2)c(O)c2cnoc12`, binding on Endoplasmin [3] was characterised by a dissociation constant (Kd) of 8.48 µM.

For `CC(C)=CCc1c(O)cc2occ(-c3ccc(Cl)c(Cl)c3)c(=O)c2c1O`, the midpoint of inhibition in the assay on MCF7 [4], the IC50, lay at 7.3 µM.

Take `CCn1nc(-c2cccs2)nc2c(=O)n(C)c(=O)nc1-2`: the Kd in assay [1] was 0.308 µM.

Consider `Cc1nc2c(=O)n(C)c(=O)nc-2n(C)n1`, for which the Kd was 0.365 µM in [1] and 16 µM in [5].

`C[C@@H]1C[C@H]2O[C@@H]2\C=C/C=C/C(=N\O)Cc2c(Cl)c(O)cc(O)c2C(=O)O1` yielded a half-inhibitory concentration (IC50) in [6] of 0.039 µM.

Turning to `COc1c(C)cnc(Cn2cnc3c(Cl)nc(N)nc32)c1C` [BIIB021], the IC50 in the assay with MCF7 [7] was determined as 0.31 µM.

Regarding `CC1=C(O)C(=O)C=C2C1=CC=C1[C@@]2(C)CC[C@@]2(C)[C@@H]3C[C@](C)(C(=O)O)CC[C@]3(C)CC[C@]12C` [CELASTROL], in the assay on PANC-1 [8], the inhibition in vivo at 3 mg/kg is 80%. Besides, in the assay on PANC-1 [9], the half-maximal inhibitory concentration (IC50) turned out to be 3 µM.

In turn, `CN(C)c1cc2c(cc1Sc1nc3c(N)nccc3n1CCNCC(C)(C)C)OCO2` [CUDC-305] came in with an IC50 in the assay on MV4-11 of 0.1 µM.

`CO[C@@H]1[C@@H](OC(N)=O)[C@@H](O)[C@H](Oc2ccc3c(O)c(NC(=O)c4ccc(O)c(CC=C(C)C)c4)c(=O)oc3c2C)OC1(C)C` [NOVOBIOCIN] showed an IC50 with MCF7 [7] of 256 µM.

With `CC(C)NCCCn1c(Sc2cc3c(cc2I)OCO3)nc2c(N)ncnc21` [PU-H71], half-maximal inhibition in the assay with MCF7 [7] (IC50) was put at 0.09 µM.

As for `CCc1cc(C(N)=O)ccc1-n1nc(C(C)C)c2c(-n3cnc(-c4cnn(C)c4)c3)ccnc21` [TAS-116], the Ki in [10] is above 50 µM; in [11], 0.0347 µM; in assay [12], 0.0213 µM; on Endoplasmin [13], above 50 µM.

On to `CC1=C(CO)C(=O)O[C@@H]([C@@H](C)[C@H]2CC[C@H]3[C@@H]4C[C@H]5O[C@]56[C@@H](O)C=CC(=O)[C@]6(C)[C@H]4CC[C@]23C)C1` [WITHAFERIN A], for which the IC50 came out at 1.24 µM in the assay on PANC-1 [14], 2.93 µM with MIA PaCa-2 and 2.78 µM with BXPC-3.
